The source of these data is patent US20240376091A1, “THIADIAZOLEAMIDE DERIVATIVES AND THEIR APPLICATIONS” (ZHEJIANG UNIVERSITY, priority 2021, published 2024).

For the test, the target named is T1, AR (Homo sapiens, UniProt P10275, T878A).
T1 construct: into the androgen-dependent PCa cells (LNCaP); endogenous in cells; host or cells: LNCaP-ARR2PB-eGFP
T1 sequence (P10275 1-920 T878A): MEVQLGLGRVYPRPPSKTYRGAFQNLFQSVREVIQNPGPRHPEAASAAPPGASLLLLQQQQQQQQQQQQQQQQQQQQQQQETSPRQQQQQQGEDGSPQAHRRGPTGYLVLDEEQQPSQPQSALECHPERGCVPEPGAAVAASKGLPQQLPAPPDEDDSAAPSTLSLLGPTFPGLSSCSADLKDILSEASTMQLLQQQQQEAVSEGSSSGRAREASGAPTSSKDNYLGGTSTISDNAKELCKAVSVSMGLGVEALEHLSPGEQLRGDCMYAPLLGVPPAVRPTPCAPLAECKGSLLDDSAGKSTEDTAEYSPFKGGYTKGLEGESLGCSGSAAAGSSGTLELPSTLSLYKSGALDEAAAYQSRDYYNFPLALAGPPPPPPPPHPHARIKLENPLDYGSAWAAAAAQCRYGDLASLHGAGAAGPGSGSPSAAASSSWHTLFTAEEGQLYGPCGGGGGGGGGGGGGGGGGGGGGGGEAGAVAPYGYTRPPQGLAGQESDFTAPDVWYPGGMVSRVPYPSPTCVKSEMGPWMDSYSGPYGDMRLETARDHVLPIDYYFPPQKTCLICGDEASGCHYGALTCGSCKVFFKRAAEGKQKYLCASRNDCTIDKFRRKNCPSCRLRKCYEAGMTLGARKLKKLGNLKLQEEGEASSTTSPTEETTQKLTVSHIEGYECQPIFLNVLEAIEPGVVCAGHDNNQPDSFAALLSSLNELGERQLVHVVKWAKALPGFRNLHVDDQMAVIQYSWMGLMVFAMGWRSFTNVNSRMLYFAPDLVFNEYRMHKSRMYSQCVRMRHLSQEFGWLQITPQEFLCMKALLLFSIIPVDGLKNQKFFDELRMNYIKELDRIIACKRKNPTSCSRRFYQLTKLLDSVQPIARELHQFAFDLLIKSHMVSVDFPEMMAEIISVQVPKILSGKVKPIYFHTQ
In words: AR transcriptional activity, LNCaP-ARR2PB-eGFP reporter cells. The following applies: read-out: IC50 AR transcriptional activities. It counts as cell-based. The source says:
Detection principles: We conducted a stable transfection of promoter ARR2PB known for its strong AR responsiveness, into the androgen-dependent PCa cells (LNCaP). The expression of enhanced green fluorescent protein (eGFP) is depending on the degree of activation of AR. Therefore, LNCaP-ARR2PB-eGFP cell line could quantitatively determine the AR antagonistic activities of the compounds by evaluating the expression of eGFP.
What is called IC50 is the concentration needed to halve the response being measured. For the compound `O=C(Nc1nc(CN2CCCC2)ns1)c1cc(-c2cccc(C(F)(F)F)c2)co1` [Compound G-24, N-(3-(pyrrolidin-1-ylmethyl)-1,2,4-thiadiazol-5-yl)-4-(3-(trifluoromethyl)phenyl)furan-2-carboxamide], the half-maximal inhibitory concentration (IC50) stood at 24.2 µM.

As to `Cc1oc(-c2cccc(C(F)(F)F)c2)cc1C(=O)Nc1nc(CC(C)O)ns1` (centres unmarked) [Compound A-60, N-(3-(2-hydroxypropyl)-1,2,4-thiadiazol-5-yl)-2-methyl-5-(3-(trifluoromethyl)phenyl)furan-3-carboxamide], the half-maximal inhibitory concentration (IC50) turned out to be 0.39 µM.

With `Cc1oc(-c2cccc(C(F)(F)F)c2)cc1C(=O)Nc1nc(CN(C)C)ns1` [Compound A-106, N-(3-((dimethylamino)methyl)-1,2,4-thiadiazol-5-yl)-2-methyl-5-(3-(trifluoromethyl)phenyl)furan-3-carboxamide], the IC50 was 1.67 µM.

Turning to `COc1cccc(-c2cc(C(=O)Nc3nc(CC(C)N4CCCCC4)ns3)co2)c1` (centres unmarked) [Compound B-14, 5-(3-Methoxyphenyl)-N-(3-(2-(piperidin-1-yl)propyl)-1,2,4-thiadiazol-5-yl)furan-3-carboxamide], the IC50 was 33.6 µM.

Take `COC(C)Cc1nsc(NC(=O)c2cc(-c3cccc(C(F)(F)F)c3)oc2C)n1` (centres unmarked) [Compound A-61, N-(3-(2-methoxypropyl)-1,2,4-thiadiazol-5-yl)-2-methyl-5-(3-(trifluoromethyl)phenyl)furan-3-carboxamide]: the IC50 came out at 3.82 µM.

Consider `CCN(CC)Cc1nsc(NC(=O)c2coc(-c3cccc(OC)c3)c2)n1` [Compound B-50, N-(3-((diethylamino)methyl)-1,2,4-thiadiazol-5-yl)-5-(3-methoxyphenyl)furan-3-carboxamide], for which the 50% inhibitory concentration (IC50) turned out to be 22.9 µM.

For the compound `CC(O)(Cc1nsc(NC(=O)c2csc(-c3cccc(C(F)(F)F)c3)c2)n1)C(F)(F)F` [Compound D-25, N-(3-(3,3,3-trifluoro-2-hydroxy-2-methylpropyl)-1,2,4-thiadiazol-5-yl)-5-(3-(trifluoro-methyl)phenyl)thiophene-3-carboxamide], the IC50 came out at 33 µM.

As to `COc1cccc(-c2cc(C(=O)Nc3nc(CC(C)N4CCCC4)ns3)c(C)s2)c1` (centres unmarked) [Compound C-14, 5-(3-Methoxyphenyl)-2-methyl-N-(3-(2-(pyrrolidin-1-yl)propyl)-1,2,4-thiadiazol-5-yl)thiophene-3-carboxamide], the IC50 came to 19.4 µM.

On to `CCN(CC)Cc1nsc(NC(=O)c2cc(-c3cccc(OC(F)(F)F)c3)oc2C)n1` [Compound A-123, N-(3-((diethylamino)methyl)-1,2,4-thiadiazol-5-yl)-2-methyl-5-(3-(trifluoromethoxy)phenyl)furan-3-carboxamide], for which the half-inhibitory concentration (IC50) came out at 0.59 µM.

With `Cc1oc(-c2cccc(C(F)(F)F)c2)cc1C(=O)Nc1nc(CN2CCCC2)ns1` [Compound A-108, 2-Methyl-N-(3-(pyrrolidin-1-ylmethyl)-1,2,4-thiadiazol-5-yl)-5-(3-(trifluoromethyl)phenyl)furan-3-carboxamide], the IC50 stood at 0.84 µM.

`CC(Cc1nsc(NC(=O)c2coc(-c3cccc(C(F)(F)F)c3)c2)n1)N(C)C` (centres unmarked) [Compound B-6, N-(3-(2-(dimethylamino)propyl)-1,2,4-thiadiazol-5-yl)-5-(3-(trifluoromethyl)phenyl) furan-3-carboxamide]: the half-maximal inhibitory concentration (IC50) was found to be 11.8 µM.

Turning to `CC(O)Cc1nsc(NC(=O)c2coc(-c3cccc(C(F)(F)F)c3)c2)n1` (centres unmarked) [Compound B-20, N-(3-(2-hydroxypropyl)-1,2,4-thiadiazol-5-yl)-5-(3-(trifluoromethyl)phenyl)furan-3-carboxamide], the IC50 was 11.5 µM.

For `COc1cccc(-c2cc(C(=O)Nc3nc(CC(C)=O)ns3)c(C)o2)c1` [Compound A-4, 5-(3-Methoxyphenyl)-2-methyl-N-(3-(2-oxopropyl)-1,2,4-thiadiazol-5-yl)furan-3-carboxamide], the half-maximal inhibitory concentration (IC50) was 0.35 µM.

`CC(=O)Cc1nsc(NC(=O)c2cc(-c3cccc(C(N)=O)c3)oc2C)n1` [Compound A-28, 5-(3-Carbamoylphenyl)-2-methyl-N-(3-(2-oxopropyl)-1,2,4-thiadiazol-5-yl)furan-3-carboxamide]: the IC50 was determined as 1.03 µM.

For the compound `CC(Cc1nsc(NC(=O)c2csc(-c3cccc(C#N)c3)c2)n1)N1CCCC1` [Compound D-12, 5-(3-Cyanophenyl)-N-(3-(2-(pyrrolidin-1-yl)propyl)-1,2,4-thiadiazol-5-yl)thiophene-3-carboxamide], the IC50 was found to be 13 µM.

As for `CCN(CC)Cc1nsc(NC(=O)c2cc(-c3cccc(OC)c3)sc2C)n1` [Compound C-50, N-(3-((diethylamino)methyl)-1,2,4-thiadiazol-5-yl)-5-(3-methoxyphenyl)-2-methyl-thiophene-3-carboxamide], the IC50 was 12.5 µM.

As to `CC(F)(F)Cc1nsc(NC(=O)c2cc(-c3cccc(OC(F)(F)F)c3)co2)n1` [Compound G-17, N-(3-(2,2-difluoropropyl)-1,2,4-thiadiazol-5-yl)-4-(3-(trifluoromethoxy)phenyl)furan-2-carboxamide], the concentration for half-maximal inhibition (IC50) was 23 µM.

As to `COc1cccc(-c2cc(C(=O)Nc3nc(CC(C)=O)ns3)oc2C)c1` [Compound F-3, 4-(3-Methoxyphenyl)-5-methyl-N-(3-(2-oxopropyl)-1,2,4-thiadiazol-5-yl)furan-2-carboxamide], the IC50 came out at 22.4 µM.

For `Cc1oc(-c2cccc(OC(F)(F)F)c2)cc1C(=O)Nc1nc(CN2CCCC2)ns1` [Compound A-124, 2-Methyl-N-(3-(pyrrolidin-1-ylmethyl)-1,2,4-thiadiazol-5-yl)-5-(3-(trifluoromethoxy)phenyl)furan-3-carboxamide], the half-inhibitory concentration (IC50) was 0.04 µM.

In the case of `Cc1oc(-c2cccc(C(F)(F)F)c2)cc1C(=O)Nc1nc(CC(C)(C)N)ns1` [Compound A-93, N-(3-(2-amino-2-methylpropyl)-1,2,4-thiadiazol-5-yl)-2-methyl-5-(3-(trifluoromethyl)phenyl)furan-3-carboxamide], the IC50 worked out at 0.03 µM.

Turning to `CC(=O)Cc1nsc(NC(=O)c2csc(-c3cccc(OC(F)(F)F)c3)c2)n1` [Compound D-4, N-(3-(2-oxopropyl)-1,2,4-thiadiazol-5-yl)-5-(3-(trifluoromethoxy)phenyl)thiophene-3-carboxamide], the IC50 worked out at 41.5 µM.

Turning to `CC(Cc1nsc(NC(=O)c2cc(-c3cccc(OC(F)(F)F)c3)co2)n1)N1CCN(C)CC1` (centres unmarked) [Compound G-9, N-(3-(2-(4-methylpiperazin-1-yl)propyl)-1,2,4-thiadiazol-5-yl)-4-(3-(trifluoromethoxy)phenyl)furan-2-carboxamide], the IC50 amounted to 47.2 µM.

In the case of `Cc1oc(C(=O)Nc2nc(CC(C)N3CCCCC3)ns2)cc1-c1cccc(C#N)c1` (centres unmarked) [Compound F-7, 4-(3-Cyanophenyl)-5-methyl-N-(3-(2-(piperidin-1-yl)propyl)-1,2,4-thiadiazol-5-yl)furan-2-carboxamide], the half-maximal inhibitory concentration (IC50) amounted to 14 µM.

For the compound `CC(Cc1nsc(NC(=O)c2cc(-c3cccc(C(F)(F)F)c3)oc2C)n1)=C(F)F` [Compound A-80, N-(3-(3,3-difluoro-2-methylallyl)-1,2,4-thiadiazol-5-yl)-2-methyl-5-(3-(trifluoromethyl)phenyl)furan-3-carboxamide], the IC50 came to 0.81 µM.

With `COc1cccc(-c2coc(C(=O)Nc3nc(CC(C)=C(F)F)ns3)c2)c1` [Compound G-15, N-(3-(3,3-difluoro-2-methylallyl)-1,2,4-thiadiazol-5-yl)-4-(3-methoxyphenyl)furan-2-carboxamide], the IC50 was 24.1 µM.

Consider `Cc1oc(-c2cccc(C(F)(F)F)c2)cc1C(=O)Nc1nc(CC(C)N2CCCCC2)ns1` (centres unmarked) [Compound A-41, 2-Methyl-N-(3-(2-(piperidin-1-yl)propyl)-1,2,4-thiadiazol-5-yl)-5-(3-(trifluoromethyl)phenyl)furan-3-carboxamide], for which the IC50 was found to be 0.17 µM.

Regarding `CC(=O)Cc1nsc(NC(=O)c2cc(-c3cccc(C(=O)O)c3)oc2C)n1` [Compound A-29, 3-(5-Methyl-4-((3-(2-oxopropyl)-1,2,4-thiadiazol-5-yl)carbamoyl)furan-2-yl)benzoic acid], the IC50 stood at 0.94 µM.

For the compound `CC(=O)Cc1nsc(NC(=O)c2cc(-c3cccc(OC(F)(F)F)c3)sc2C)n1` [Compound C-4, 2-Methyl-N-(3-(2-oxopropyl)-1,2,4-thiadiazol-5-yl)-5-(3-(trifluoromethoxy)phenyl)thiophene-3-carboxamide], the IC50 was determined as 25.1 µM.

For `CC(=O)Cc1nsc(NC(=O)c2cc(-c3cccc(OC(F)F)c3)c(C)o2)n1` [Compound F-5, 4-(3-(Difluoromethoxy)phenyl)-5-methyl-N-(3-(2-oxopropyl)-1,2,4-thiadiazol-5-yl)furan-2-carboxamide], the IC50 worked out at 12.6 µM.
